Marks after values point to notes of the source that are not given here.
Experiments:
BM cells [1] = assay: Hematopoietic markers in BM cells of irradiated mice after injection of NOS inhibitors; assay type: in vivo; settings: 7-10 days after transplantation; for c-kit positive BM cells: control 2%; for IL-3-R positive BM cells: control 7%; for GM-CSF-R positive BM cells: control 18%; for G-CSF-R positive BM cells: control 24%
Method: To study the maturation of hematopoietic cells in the bone marrow of the irradiated recipient mice, the animals were treated as described above and the BM cells from the demurs of syngeneic donors were injected intravenously (10^5 BM cells per mice) in the recipients.
The BM cells were tested for the presence of various growth factor receptors which serve as markers of the differentiation stage and indicate the presence of stem cells and multipotent percursor cells. The BM preparations were tested for cells expressing receptors to HSF (ligand of c-kit), GM-CSF, G-CSF and IL-3.

BM cells [2] = assay: TUNEL apoptosis in BM cells after prolonged treatment with NOS inhibitors; assay type: in vivo; settings: control 8+/−3%
Description: To test whether prolonged treatment with NOS inhibitors affects the rate of programmed cell death in BM cells, the number of aproptotic cells in the preparation of BM cells was examined.

developing Xenopus brain = assay: Plastic impregnated with NOS inhibitors in brain ventricle of stage 43 tadpoles (BrdU, TUNEL); assay type: in vivo, Xenopus laevis; settings: stage 43 tadpoles, 3, 7 and 12 days, vs control brains
Method: After 3, 7 and 12 days, animals were examined for changes in the patterns of cell division, differentiation, survival, and morphology of the brain. […] Whether the inhibition of NOS and excessive proliferation of cells in the developing brain affects the programmed death of neurons in the tectum was tested. […] The increase in the number of TUNEL-positive cells is not due to toxicity of the inhibitors, since cells continued to incorporate BrdU very effectively. […] Alternatively, this may indicate that differentiated neurons became dependent on NO for survival, similar to the situation in fully differentiated PC12 cells (Peunova et al., 1996). Neuronal differentiation in the brain is affected

[3] = test system: tadpole brain, optic tectum; assay: Elvax implants with NO donor or NOS inhibitor in brain ventricle of stage 45 tadpoles, optic tectum analysis; assay type: in vivo; settings: for BrdU-positive cells per 10^3 cells, change / TUNEL-positive cells (total), change / TUNEL-positive cells per 10^3 cells, change / cell number, change / BrdU-positive cells (total), change / brain volume, change / cell density, change: vs saline control
Method: To test the effect of exogenously supplying NO to the developing tadpole brain, pieces of the slow-release matrix Elvax impregnated either with S-nitroso-N-acetylpenicillamin (SNAP, a widely used donor or NO which releases NO upon hydrolysis), or with saline as a control were inserted into the brain ventricle of state 45 tadpoles. At 1 or 3 days after implantation the following parameters in the optic tectum were analyzed: the total number of cells (as measured by the number of DAPI-stained nuclei), the number of S phase proliferating cells (as measured by BrdU incorporation), the number of apoptotic cells (as measured by TUNEL assay), the relative numbers of BrdU- and TUNEL-positive cells per 10^3 total cells, the size of the optic tectum, and the cell density in the tectum (Table 5). […] At 3 days the effects of NO on cell proliferation are less pronounced, likely reflecting the complete hydrolysis of the NO donor and the cessation of NO release. […] An increase in programmed cell death in response to NO likely contributes to the decrease in the total number of cells in the brain.
The close proximity of proliferating cells and NOS-expressing cells in the optic tectum and data from the NO donor experiments above are consistent with the proposed antiproliferative role of NO during Xenopus brain development. To test the causative role of NO in cell cycle arrest of neuronal precursors and to determine whether production of NO is necessary for cell cycle arrest and subsequent differentiation of neuronal precursors in the developing Xenopus brain, NOS activity in the brain was inhibited by using Elavax matrix impregnated with a NOS inhibitor, either L-NAME or ETU, or with saline as a control. Pieces of impregnated matrix were inserted into the brain ventricle of stage 45 tadpoles. After 3 days of treatment the brains were examined for changes in the patterns of cell division and differentiation, cell number, and overall size and morphology.
Animals, NOS inhibitors, and NO donors. Albino Xenopus laevis tadpoles were obtained by human chorionic gonadotrophin induced matings and raised under standard conditions. At state 45^5, animals were anesthetized in 0.02% 3-aminobenzoic acid (MS-222; Sigma) and a tiny piece (100 μm^2×30 μm) of slow release Elvax plastic polymer (Dupont) was inserted into the tectal ventricle through an incision made in the overlying skin with a 30 gauge needle. Elvax was prepared with stock concentrations of the NOS inhibitors, 2-ethyl-2thiopseudourea (ETU, Sigma) or L-nitro-arginine methyl ester (L-NAME, Sigma) or the NO donor S-nitroso-acetylpenicillamnin (SNAP, Sigma) prepared as a 1:10 ratio of chemical to polymer matrix. Low molecular weight molecules, including L-NAME, are released at a constant rate over a period up to 30 days as the lyophilized Elvax matrix slowly hydrates. […] Control animals were treated with Elvax impregnated with saline (0.1 M phosphate buffer).
Histochemistry and antibodies. Immunocytochemistry with wholemount preparations and sections of the tadpole was performed as described. Monoclonal antibodies to β-II tubulin, N-CAM (developed by U. Rutishauser), and Islet-1 (developed by T. M. Jessell) were obtained from the Developmental Studies Hybridoma Bank developed under the auspices of the NICHD and maintained by the University of Iowa, Department of Biological Sciences, Iowa City, Iowa 52243. Anti-mouse antibody conjugated to fluorescein (Bochringer Manheim) was used as a secondary antibody. Specimens were visualized and photographed under fluorescence or Normarski optics on a Zeiss Axiophot. For nuclei visualization, brain sections were stained with DAPI, a fluorescent DNA stain (Molecular Probes) at 1 μM. To identify cells in S phase tadpoles were injected with 50 μg/ml 5-Bromo-deoxyuridine (BrdU) (Beckton-dickinson). After two hours survival, animals were fixed in 3.7% paraformaldehyde for 2 hours and then in 70% ethanol overnight. […]

[4] = test system: tadpole brain, optic tectum; assay: as above; assay type: in vivo; settings: 7d
[5] = test system: Drosophila melanogaster larvae; assay: Adult fly phenotype (leg segment hypertrophy) after injection of NOS inhibitors into third instar larvae; assay type: in vivo; settings: adults after injection of late third instar larvae
Method: Chemicals were dissolved in Schneider's solution at concentrations of 0.1 M for L-NAME and D-NAME and 0.01M for ETU and mixed with Freund's adjuvant (Sigma) in 1:3 ratio. Amounts of 5-10 nl were microinjectd in staged late third instar using a glass needle.
To test this hypothesis, NOS activity was inhibited by injecting specific NOS inhibitors in the developing larvae at the end of the third instar, several hours before metamorphosis. Most of the larvae completed metamorphosis successfully, giving rise to adult flies within the normal time frame. The resulting adults differed from normal flies in many respects, the most dramatic being enlargements of the appendages and other structures of the fly body. The changes included a) hypertrophy of the demur, tibia and the segments of the tarsus; b) overgrowth of the tissues originating from the genital discs; in extreme cases, these cells contributed to more than one-quarter of the fly body; c) and increase of the overall surface of the wings; d) overgrowth of the cells of tergites and sternites; e) hypertrophy of the humerus; f) occasional duplications of some areas of the eye; g) occasional realformation of genital structures, legs and eyes; and h) occasional ectopic formation of misplaced body structures.
The changes were most profound in, and most often affected the legs of, the adults. […]

[6] = test system: transplanted BM cells, spleen colonies; assay: Hemopoietic colonies in spleens of irradiated mice after BM transplantation and injection of NOS inhibitors (erythroid differentiation); assay type: in vivo; settings: 9-10 days after transplantation
Method: To study the formation of cell of the erythroid lineage in the spleen of the irradiated recipient mice, the animals (females of F1 CBA×C57B1 hybrids weighing 22-24 g) were treated with 750 cGy total body irradiation within 3-4 hours before transplantation. This dosage was tested to be enough for complete suppression of hematopoiesis in the irradiated recipient animals. BM cells were flushed from the femurs of syngeneic donors and injected intravenously (10^5 BM cells per mice) in the recipients. The animals received twice a day injections of 100 mg/kg of L-NAME and D-NAME and 10 mg/kg of ETU for 7-10 days. Mice were analyzed 9-10 days after transplantation.
In contrast, when animals were treated with NOS inhibitors after BM transplantation, most of the colonies in the spleen contained undifferentiated blast cells (up to 85% of blast cells colonies and mixed blast erythroid cells colonies). Erythroid colonies comprised only 15% of the total number of colonies, and the megakaryocyte and granulocyte colonies were not detectable. The results were similar with two structurally unrelated NOS inhibitors, confirming the specificity of their action. Thus, prolonged treatment of recipient mice after BM transfer with NOS inhibitor, reversed the ratio of blast cells-containing colonies to the erythroid cells-containing colonies almost 16 fold, effectively preventing erythroid differentiation.

[7] = test system: transplanted BM cells, membrane colonies; assay: Hemopoietic colonies on cellulose acetate membranes in the peritoneal cavity of irradiated mice (myeloid differentiation); assay type: in vivo; settings: 7-8 days
Method: To study the formation of cells of the myeloid lineage, cellulose acetate membranes were implanted in the peritoneal cavity of mice. After 7 days, when a layer of fibroblasts had covered the membranes, the mice were irradiated as described above. BM cells from syngeneic donors were injected (10^5 BM cells per mice) in the peritoneal cavity of the recipients. Animals received injections of NOS inhibitors as described above. Membranes with growing colonies were isolated and analyzed 7-8 days later.
The differentiation status of the colonies in the spleen was evaluated by morphological criteria, myeloperoxidase reaction, and by immunohistochemical tests for the presence of receptors to various cytokines, which are present only at specific stages of the myeloid cells' maturation. […] A much smaller fraction contained undifferentiated blasts cells (6%), and a very small fraction of colonies contained erythroid cells (1.3%). In contrast, when animals were treated with NOS inhibitors after BM transplantation, most of the colonies on the membranes (up to 85%) contained and undifferentiated blasts cells. Colonies with differentiated cells of the granulocyte lineage comprised only 15.6% of the total number of colonies, and a negligible fraction of the colonies (<0.5%) contained erythroid cells. The results were similar with two structurally unrelated NOS inhibitors, confirming the specificity of their action. Thus, prolonged treatment of recipient mice after BM transfer with NOS inhibitor, reversed the ratio of blast cells-contiaing colonies to the granulocytic colinies almost 80-fold, effectively preventing myeloid differentiation.

Q: What does the source list for CCSC(=N)N [ETU, 2-ethyl-2-thiopseudourea]?
A: c-kit positive BM cells (BM cells [1]): 84%; IL-3-R positive BM cells (BM cells [1]): 83%; GM-CSF-R positive BM cells (BM cells [1]): 10%; G-CSF-R positive BM cells (BM cells [1]): 8%; proportion of apoptotic cells (TUNEL) in BM (BM cells [2]): 8%; number of cells in the S phase (BrdU labeling) in the brain (developing Xenopus brain): dramatic increase; BrdU-positive cells (total) ([3]; 7d): 550 +/− 50; BrdU-positive cells per 10^3 cells ([3]; 7d): 42; TUNEL-positive cells (total) ([3]; 7d): 184 +/− 7; TUNEL-positive cells per 10^3 cells ([3]; 7d): 14; brain volume ([3]; 7d): 122.3 +/− 4.3* mm^3 × 10^−4; cell number ([3]; 7d): 12870 +/− 690*; BrdU-positive cells per 10^3 cells, change ([3]; 7d): +247%; TUNEL-positive cells (total), change ([3]; 7d): +128%; TUNEL-positive cells per 10^3 cells, change ([3]; 7d): +40.0%; cell number, change ([3]; 7d): +53.7%; toxicity to the animals ([3]; Elvax stock 1 M L-NAME, 10 mM ETU, increased BrdU incorporation): without any signs of toxicity; cell density [4]: 105 +/− 3* cells per mm^3 × 10^−4; BrdU-positive cells (total), change ([4]; vs saline control): +269%; cell density, change ([4]; vs saline control): +25.5%

Q: What does the source list for COC(=O)[C@H](N)CCCN=C(N)N[N+](=O)[O-] [D-NAME, D-nitroarginine methyl ester]?
A: increase of diameter of certain leg segments (hypertrophy, third pair of legs) [5]: not; blast cell and erythroid cells colonies [6]: 13%; erythroid colonies [6]: > 60%; granulocyte colonies [6]: 4%; megakaryocyte colonies [6]: 7.5%; blast cell colonies ([6]; injections twice a day): 14%; blast cell colonies [7]: 6%; erythroid colonies [7]: 1.3%; granulocytic colonies [7]: 92%; c-kit positive BM cells (BM cells [1]): 7%; IL-3-R positive BM cells (BM cells [1]): 12%; GM-CSF-R positive BM cells (BM cells [1]): 16%; G-CSF-R positive BM cells (BM cells [1]): 19%

Q: What does the source list for CC(=O)N[C@H](C(=O)O)C(C)(C)SN=O (racemic) [SNAP, S-nitroso-N-acetylpenicillamine]?
A: BrdU-positive cells (total) ([3]; 1d): 12 +/− 2; BrdU-positive cells per 10^3 cells ([3]; 1d): 3; TUNEL-positive cells (total) ([3]; 1d): 138 +/− 12; TUNEL-positive cells per 10^3 cells ([3]; 1d): 34; brain volume ([3]; 1d): 66.2 +/− 6.4 mm^3 × 10^−4; cell density ([3]; 1d): 62.6 +/− 14.1 cells per mm^3 × 10^−4; cell number ([3]; 1d): 3983 +/− 606; BrdU-positive cells (total), change ([3]; 1d): −96.2%; BrdU-positive cells per 10^3 cells, change ([3]; 1d): −95.2%; TUNEL-positive cells (total), change ([3]; 1d): −28.2%; TUNEL-positive cells per 10^3 cells, change ([3]; 1d): −10.5%; brain volume, change ([3]; 1d): −15.6%; cell density, change ([3]; 1d): −2.8%; cell number, change ([3]; 1d): −20.7%; BrdU-positive cells (total) ([3]; 3d): 316 +/− 22; BrdU-positive cells per 10^3 cells ([3]; 3d): 63; TUNEL-positive cells (total) ([3]; 3d): 82 +/− 10; TUNEL-positive cells per 10^3 cells ([3]; 3d): 16; brain volume ([3]; 3d): 80.1 +/− 8.6* mm^3 × 10^−4; cell density ([3]; 3d): 62.3 +/− 1.7** cells per mm^3 × 10^−4; cell number ([3]; 3d): 5012 +/− 594**; BrdU-positive cells (total), change ([3]; 3d): −34.0%; BrdU-positive cells per 10^3 cells, change ([3]; 3d): +21.1%; TUNEL-positive cells (total), change ([3]; 3d): −51%; TUNEL-positive cells per 10^3 cells, change ([3]; 3d): −11.1%; brain volume, change ([3]; 3d): −31.3%; cell density, change ([3]; 3d): −20.8%; cell number, change ([3]; 3d): −45.1%; stock concentration found to be effective ([3]; Elvax stock, range of concentrations tested): 300 mM; number of proliferating cells, of the control value ([3]; day 1): 5%

Reference: patent publication US6593372B2, “Therapeutic uses for nitric oxide inhibitors” (Cold Spring Harbor Laboratory, priority 1996, dated 2003)
